Measurements: publication PMC8629924 (Nature chemistry, 2021)

Molecular target: T1, MaNifB (Methanosarcina acetivorans, UniProt Q8TIF7)
T1 sequence (Q8TIF7 1-323): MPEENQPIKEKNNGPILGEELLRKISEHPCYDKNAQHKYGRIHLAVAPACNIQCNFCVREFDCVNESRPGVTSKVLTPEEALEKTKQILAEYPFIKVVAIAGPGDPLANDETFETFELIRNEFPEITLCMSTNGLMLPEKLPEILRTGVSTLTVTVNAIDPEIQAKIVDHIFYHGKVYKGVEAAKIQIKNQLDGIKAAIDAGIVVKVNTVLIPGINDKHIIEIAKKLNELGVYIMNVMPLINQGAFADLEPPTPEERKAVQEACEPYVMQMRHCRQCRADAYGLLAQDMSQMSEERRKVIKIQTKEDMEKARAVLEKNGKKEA
Details: K-cluster-loaded MaNifB; dithionite-reduced or IDS-oxidized

## C[S+](CC[C@H](N)C(=O)O)C[C@H]1O[C@@H](n2cnc3c(N)ncnc32)[C@H](O)[C@@H]1O (stereo partly shown) [SAM]
  CW EPR and 3-pulse ESEEM of K- to L*-cluster conversion: SAM-treated MaNifB (designated MaNifB-L*) displayed a distinct change in the line-shape
